Like-named read-outs stand apart in the source and are kept apart here.
Assays:
[1] = system: cellular HDAC activity in MV-3 cells; test: HDAC whole-cell assay; assay type: cell-based; conditions: for IC50: read-out: IC50 whole-cell HDAC inhibition
Procedure: The amelanotic melanoma cell line MV-3 was obtained from EPO GmbH Berlin-Buch. The human ovarian carcinoma cell line A2780 was obtained from the European Collection of Cell Cultures (ECACC, Salisbury, UK). The cell lines were cultivated in RPMI 1640 medium supplemented with 10% fetal bovine serum and 50 U/mL penicillin and 50 µg/mL streptomycin and incubated at 37 °C under humidified air with 5% CO2 to 80–90% confluency before being used in further assays.
The HDAC whole-cell assay is based on the assay established by Ciossek et al. and Bonfils et al., with minor changes. Melanoma cells MV-3 were seeded in concentration of 15 × 10^3 cells/well (total volume of 81 µL) in 96-well cell-culture microplates (Catalog# 655086, Greiner Bio-One, Frickenhausen, Germany ) and cultured for 24 h. Aliquots of the DMSO stock solutions (10 mM) designated for photolysis were irradiated for 10 min with the UV reactor (see Section 4.3). The stock solutions processed with or without irradiation were used to perform a 4-fold serial dilution in PBS. Next, the cells were treated with 9 µL of the serial dilution for 18 h. For the analysis of the remaining HDAC activity, 10 µL of substrate solution, containing 3 mM Boc-Lys(ε-Ac)-AMC (Catalog# 233691-67-3, BLD pharmatech GmbH, Kaiserslautern, Germany) and 0.5% IGEPAL CA-630 (Catalog# J61055, Alfa Aesar, Thermo Fisher Scientific, Heysham, United Kingdom), was added and incubated for 3 h under cell culture conditions. The reaction was stopped with 100 µL of stop solution (50 mM Tris-HCl, 137 mM NaCl, 2.7 mM KCl, 1 mM MgCl2, 1% IGEPAL CA-630, 10 µM vorinostat, 2.0 mg/mL trypsin) and developed for 1.5 h under cell culture conditions. The fluorescence signal was measured using a Spark multimode microplate reader (Tecan Group AG, Männedorf, Swiss) at excitation wavelength of λ = 355 nm and emission wavelength of λ = 460 nm. Concentration-effect curves were generated using the four-parameter logistic equation (GraphPad Prism 9.0, San Diego, CA, USA), and mean IC50 values were determined by nonlinear regression based on at least three independent experiments in duplicates.

A2780 cells = test: Annexin V/PI apoptosis assay (flow cytometry); assay type: cell-based, human; conditions: A2780, 0.5 µM, 48 or 72 h
Procedure: A2780 cells (4 × 10^4 cells/mL) were seeded in 6-well plates (Starlab GmbH, Hamburg, Germany) and allowed to attach. First, dilutions (500 µM) in DMSO were prepared from the respective stock solutions in DMSO (10 mM). Predilutions for photolysis experiments were irradiated in clear U-bottom 96-well microplates (Greiner Bio-One, Greiner AG, Kremsmünster, Austria) for 10 min in the UV reactor described above. Subsequently, vehicle control (DMSO) or compounds, at a concentration of 0.5 µM, were added to the cells and incubated for 48 h and 72 h, respectively. The final volume was 3 mL, and the final DMSO concentration was 0.1%. Staining was performed in triplicate in two separate experiments using annexin V and propidium iodide and analyzed by flow cytometry (Guava® easyCyte^TM, Luminex, Austin, TX, USA), according to the manufacturer’s protocol (BioLegend, San Diego, CA, USA).
Results were expressed as mean with standard deviation (SD). Statistical analysis was performed using GraphPad Prism (GraphPad Software, San Diego, CA, USA). Normality of the data was analyzed using the Shapiro–Wilk’s test. Statistical significance was assessed using one-way analysis of variance (ANOVA) with Tukey’s multiple comparison test. Differences were considered statistically significant at * p < 0.05, ** p < 0.01, *** p < 0.001.

[2] = system: caspase 3/7 in A2780 cells; test: Caspase-Glo 3/7 assay; assay type: cell-based, human; conditions: A2780, 0.5 µM, 24 h
Procedure: A2780 cells (8000 cells/well) were seeded in white sterile 96-well plates (ThermoFisher Scientific, Waltham, MA, USA, #136102). Dilutions (500 µM) in DMSO were prepared from the respective stock solutions in DMSO (10 mM). Predilutions used for photolysis experiments were irradiated in clear U-bottom 96-well microplates (Greiner Bio-One, Greiner AG, Kremsmünster, Austria) for 10 min in the UV reactor described above. Vehicle control (DMSO) or compounds, at a concentration of 0.5 µM, were added to the cells. The cells were then incubated for 24 h under standard culture conditions. The final volume was 100 µL, and the final DMSO concentration was 0.1%. After 24 h, cells were subsequently incubated with Caspase-Glo 3/7 substrate (Promega, Madison, WI, USA, #G8091) for 1 h at 25 °C, according to the manufacturer´s protocol. Luminescence was detected at 25 °C using a Spark microplate reader (Tecan Group AG, Maennedorf, Swiss). Two independent experiments were performed in triplicates.
GraphPad Prism (GraphPad Software, San Diego, CA, USA) was used to perform statistical analysis. Normality of the data was assessed using Shapiro–Wilk’s and Kolmogorov–Smirnov tests. To determine statistical differences between means, a one-way analysis of variance (ANOVA) was performed. If the difference was significant (p < 0.05), the mean of each column was compared to the mean of the control and corrected for multiple comparisons using Dunnett’s post-hoc test. Differences were considered statistically significant at * p < 0.05, ** p < 0.01, *** p < 0.001.

human recombinant HDAC1 = biological target: T1, human recombinant HDAC1 (Homo sapiens, UniProt Q13547); test: Fluorogenic HDAC enzyme inhibition assay (ZMAL substrate), HDAC1; assay type: biochemical
T1 construct: purchased BPS Bioscience Inc. 50051
T1 sequence (Q13547 whole entry): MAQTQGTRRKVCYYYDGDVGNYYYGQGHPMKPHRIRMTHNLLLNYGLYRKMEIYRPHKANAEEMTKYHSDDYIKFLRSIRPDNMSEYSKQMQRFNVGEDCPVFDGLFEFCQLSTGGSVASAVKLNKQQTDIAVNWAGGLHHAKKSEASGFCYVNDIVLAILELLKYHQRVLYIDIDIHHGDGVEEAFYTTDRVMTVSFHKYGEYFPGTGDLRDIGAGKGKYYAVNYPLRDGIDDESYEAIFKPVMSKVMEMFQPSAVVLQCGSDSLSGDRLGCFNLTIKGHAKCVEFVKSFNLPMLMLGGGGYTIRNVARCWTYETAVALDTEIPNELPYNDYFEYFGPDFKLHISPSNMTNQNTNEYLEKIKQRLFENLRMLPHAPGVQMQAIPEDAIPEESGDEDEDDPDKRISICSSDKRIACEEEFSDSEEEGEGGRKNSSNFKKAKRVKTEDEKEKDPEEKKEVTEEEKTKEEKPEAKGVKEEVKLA
Procedure: First, predilutions (100-fold final assay concentration) of test compounds or reference inhibitors were prepared. To this end, 3-fold serial dilutions of the respective DMSO stock solutions were prepared in DMSO using clear V-bottom 96-well microplates (Greiner Bio-One, Greiner AG, Kremsmünster, Austria). Predilutions designated for photolysis were irradiated for 10 min using the UV reactor described above. […] Next, 5.0 µL of these serial dilutions in assay buffer were transferred into 96-well microplates (OptiPlate-96 Black, PerkinElmer, Waltham, MA, USA). […] Fluorescence (excitation: 355 nm, emission: 460 nm) was measured using a FLUOstar OPTIMA microplate reader (BMG LABTECH GmbH, Ortenberg, Germany). IC50 values were determined by generating normalized dose–response curves using the built-in “log(inhibitor) vs. response (three parameters)” equation provided by GraphPad Prism (GraphPad Prism 9.0, San Diego, CA, USA). All compounds were tested in duplicates; reported mean IC50 values, including standard deviation, were calculated from at least two independent experiments.

SMILES | IC50 ([1]; 18 h, without UV irradiation) | IC50 ([1]; MV-3, light or radiation study, 18 h, without UV irradiation) | early and late apoptosis vs DMSO control (A2780 cells; without UV irradiation) | activation of caspase 3/7 ([2]; without UV) | IC50 (human recombinant HDAC1; without UV irradiation) | IC50 whole-cell HDAC inhibition ([1]; 18 h, without UV irradiation) | IC50 ([1]; light or radiation study, 18 h, after UV irradiation (365 nm, 10 min)) | inhibition at 25 µM ([1]; light or radiation study, at 25 µM, without UV irradiation) | early and late apoptosis vs DMSO control (A2780 cells; after light activation) | activation of caspase 3/7 ([2]; + UV (365 nm, 10 min)) | IC50 (human recombinant HDAC1; after UV irradiation (365 nm, 10 min)) | increase of HDAC1 inhibition upon irradiation with UV light (human recombinant HDAC1; irradiated vs non-irradiated)
CN(C)c1ccc(C(=O)N(CC(=O)NCc2ccccc2)Cc2ccc(C(=O)NO)cc2)cc1 [I, N-[2-(benzylamino)-2-oxoethyl]-4-(dimethylamino)-N-[4-(hydroxycarbamoyl)-benzyl]-benzamide] | 90.6 ± 5.74 nM | 91 nM | significant increase in early and late apoptotic cells | significant activation of caspase 3/7 | 12.7 ± 0.7 nM | – | – | – | – | – | – | –
COc1cc(CONC(=O)c2ccc(CN(CC(=O)NCc3ccccc3)C(=O)c3ccc(N(C)C)cc3)cc2)c([N+](=O)[O-])cc1OC [pc-I, N-[2-(Benzylamino)-2-oxoethyl]-N-(4-{[(4,5-dimethoxy-2-nitrobenzyl)oxy]carbamoyl}benzyl)-4-(dimethylamino)benzamide] | – | – | no significant increase in early and late apoptosis | inactive | 824 ± 32.2 nM | n.e. (no effect: <25% inhibition at 25 µM) | 73 nM | < 25% | increased apoptosis levels which were comparable to compound I | significant activation of caspase 3/7 | 6.8 ± 1.2 nM | 121 fold

Source: article PMC10056348, “Photocaged Histone Deacetylase Inhibitors as Prodrugs in Targeted Cancer Therapy” (Pharmaceuticals, 2023)
